Measurements taken from patent publication US9302991B2, “Arylamide derivatives as TTX-S blockers” (RaQualia Pharma Inc., priority 2010, dated 2016).
pIC50: −log10 of the molar value.

These compounds were tested against T1, human Nav1.3 channels (Homo sapiens, UniProt Q9NY46) (assay: FRET assay, human Nav1.3 (EFS on FDSS)). Settings: HEK293 cells expressing human Nav1.3, read-out: IC50 against Nav1.3.
T1 construct: expressed in transfected cells; host or cells: HEK293
Type: cell-based
Experimental: The inhibitory activities of compounds against voltage gated sodium channels are determined by methodology well known in the art.
The ability of the aryl substituted carboxamide derivatives of the formula (I) to inhibit the NaV1.3, Nav1.7 and Nav1.5 channels is measured by Fluorescence Resonance Energy Transfer (FRET) assay and electrophysiology assay described below.
This screen is used to determine the effects of compounds on human Nav1.3, human Nav1.7, and human Nav1.5 channels, utilising electrical field stimulation (EFS) system in 96-well plate format on FDSS (Hamamatsu Photonics) platform. The change of membrane potential is monitored with FRET dye pair, oxonol (DiSBAC2(3)) and coumarin (CC2-DMPE).
Each HEK293 cells expressing human Nav1.3 channels and HEK293 cells expressing human Nav1.5 channels are grown in T225 flasks, in a 5% CO2 humidified incubator to about 80% confluence. Media composition consists of Dulbecco's Modified Eagle Medium (high glucose), 10% FCS, 100 units/mL Penicillin, 100 microgram/mL Streptomycin and 500 microgram/mL Geneticine.
Protocol: • Seed each cell lines (1×10^5 cells/well) into poly-D-lysine coated 96-well plates prior to experimentation. • Incubate at 37° C. in 5% CO2 for 24 hours. • Wash each well with assay buffer (140 mM NaCl, 4.5 mM KCl, 10 mM D-Glucose, 2 mM CaCl2, 1 mM MgCl2, 10 mM HEPES, pH 7.4 adjusted with NaOH) twice. • Add 1st loading solution containing 10 microM CC2-DMPE and 0.06% Pluronic F-127 in assay buffer. • Incubate the plate at room temperature in dark for 1 hour. • Remove 1st loading solution and added 2nd loading solution containing 15 microM DiSBAC2(3), 0.555 mM VABSC-1 and 0.004% Pluronic F-127 in assay buffer. • Place the plate under the dark at room temperature for 25 minutes. • Add compound solutions into the assay plate. • Set the assay plate in FDSS and placed an EFS device on the plate. • Measure EFS-induced fluorescent response by FDSS.
The data are analyzed and reported as normalized ratios of intensities measured at […]. The process of calculating these ratios is performed as follows:
This analysis is performed using a computerized specific program designed for FDSS generated data. Fluorescence ratio values are plotted using XLfit to determine an IC50 value for each compound.

T1 sequence (Q9NY46 whole entry): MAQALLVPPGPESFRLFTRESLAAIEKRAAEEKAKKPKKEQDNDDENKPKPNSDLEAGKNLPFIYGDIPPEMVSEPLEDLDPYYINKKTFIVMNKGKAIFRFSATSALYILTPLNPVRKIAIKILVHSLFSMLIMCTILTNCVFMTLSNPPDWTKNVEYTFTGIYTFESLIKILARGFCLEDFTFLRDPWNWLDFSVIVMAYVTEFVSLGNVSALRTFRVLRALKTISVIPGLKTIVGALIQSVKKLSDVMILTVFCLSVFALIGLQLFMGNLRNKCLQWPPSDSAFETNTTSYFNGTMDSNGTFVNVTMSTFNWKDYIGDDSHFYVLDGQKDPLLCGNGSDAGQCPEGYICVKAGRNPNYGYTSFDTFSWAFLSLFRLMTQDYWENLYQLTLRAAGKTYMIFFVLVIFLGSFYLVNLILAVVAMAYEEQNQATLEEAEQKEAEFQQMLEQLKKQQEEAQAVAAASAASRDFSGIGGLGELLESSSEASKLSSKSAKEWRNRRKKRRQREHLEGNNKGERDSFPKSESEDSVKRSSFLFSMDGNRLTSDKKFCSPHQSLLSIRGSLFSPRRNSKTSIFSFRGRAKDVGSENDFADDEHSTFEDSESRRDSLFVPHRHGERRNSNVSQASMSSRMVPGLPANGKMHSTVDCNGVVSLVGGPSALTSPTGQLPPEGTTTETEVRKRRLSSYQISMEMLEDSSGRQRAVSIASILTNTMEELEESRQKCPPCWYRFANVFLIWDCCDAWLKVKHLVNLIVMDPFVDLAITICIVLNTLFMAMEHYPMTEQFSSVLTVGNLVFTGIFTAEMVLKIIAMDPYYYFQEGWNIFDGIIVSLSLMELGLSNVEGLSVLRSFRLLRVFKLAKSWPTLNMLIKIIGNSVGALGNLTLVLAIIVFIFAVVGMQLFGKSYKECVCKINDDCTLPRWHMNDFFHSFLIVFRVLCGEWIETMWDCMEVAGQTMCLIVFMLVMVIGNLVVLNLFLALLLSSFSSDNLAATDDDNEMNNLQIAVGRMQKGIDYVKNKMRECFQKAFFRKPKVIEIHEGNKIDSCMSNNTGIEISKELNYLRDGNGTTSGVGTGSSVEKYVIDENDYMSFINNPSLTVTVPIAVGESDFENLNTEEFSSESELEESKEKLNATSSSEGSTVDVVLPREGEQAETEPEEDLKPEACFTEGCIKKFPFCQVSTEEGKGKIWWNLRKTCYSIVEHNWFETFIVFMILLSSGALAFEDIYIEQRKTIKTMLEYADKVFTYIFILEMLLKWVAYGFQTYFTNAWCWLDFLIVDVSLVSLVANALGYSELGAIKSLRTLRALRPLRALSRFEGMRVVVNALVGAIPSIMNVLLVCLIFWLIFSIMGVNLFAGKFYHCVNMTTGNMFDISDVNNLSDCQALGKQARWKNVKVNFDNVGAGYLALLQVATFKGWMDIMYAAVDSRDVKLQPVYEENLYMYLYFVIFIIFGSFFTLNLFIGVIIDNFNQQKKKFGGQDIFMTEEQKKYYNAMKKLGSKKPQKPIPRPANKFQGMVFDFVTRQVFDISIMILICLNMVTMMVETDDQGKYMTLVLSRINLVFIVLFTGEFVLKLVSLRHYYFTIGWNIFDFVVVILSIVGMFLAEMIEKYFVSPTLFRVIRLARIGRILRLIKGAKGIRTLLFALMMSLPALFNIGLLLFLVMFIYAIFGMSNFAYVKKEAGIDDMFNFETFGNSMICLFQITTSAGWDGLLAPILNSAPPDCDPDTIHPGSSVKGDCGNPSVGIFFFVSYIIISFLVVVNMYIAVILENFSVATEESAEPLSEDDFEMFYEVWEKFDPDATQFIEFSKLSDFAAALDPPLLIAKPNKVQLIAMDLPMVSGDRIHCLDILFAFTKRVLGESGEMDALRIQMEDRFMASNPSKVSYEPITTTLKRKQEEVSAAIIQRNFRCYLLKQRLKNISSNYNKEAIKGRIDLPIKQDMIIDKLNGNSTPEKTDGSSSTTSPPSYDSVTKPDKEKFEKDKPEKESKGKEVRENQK

pIC50, > 6.00:
Cc1cc(C(=O)NCc2cnc(OCC(F)(F)F)c(Cl)c2)cc(NC(=O)CC2CC2)n1 [Example 956, N-((5-chloro-6-(2,2,2-trifluoroethoxy)pyridin-3-yl)methyl)-2-(2-cyclopropylacetamido)-6-methylisonicotinamide]
CC(=O)Nc1cc(C(=O)NCc2cnc(OCC(F)(F)F)c(Cl)c2)ccn1 [Example 93, 2-acetamido-N-((5-chloro-6-(2,2,2-trifluoroethoxy)pyridin-3-yl)methyl)isonicotinamide]
CCC(=O)Nc1cc(C(=O)NCc2cc(C)cc(OC(F)(F)F)c2)ccn1 [Example 598, N-(3-methyl-5-(trifluoromethoxy)benzyl)-2-propionamidoisonicotinamide]
CCC(=O)Nc1cc(C(=O)NCc2ccc(F)c(OC(F)(F)F)c2)cc(C)n1 [Example 591, N-(4-fluoro-3-(trifluoromethoxy)benzyl)-2-methyl-6-propionamidoisonicotinamide]
O=C(NCc1cc(OC(F)(F)F)ccc1F)c1ccnc(NC(=O)C2CC2)c1 [Example 608]
CC(=O)Nc1cc(C(=O)NCc2cc(C(F)(F)F)ccc2F)cc(C)n1 [Example 574, 2-acetamido-N-(2-fluoro-5-(trifluoromethyl)benzyl)-6-methylisonicotinamide]
Cc1ccc(OCC(F)(F)F)nc1CNC(=O)c1ccnc(NC(=O)C2CC2)c1 [Example 568, 2-(cyclopropanecarboxamido)-N-((3-methyl-6-(2,2,2-trifluoroethoxy)pyridin-2-yl)methyl)isonicotinamide]
COc1nc(OCC(F)(F)F)ccc1CNC(=O)c1cc(C)nc(NC(=O)CC2CC2)c1 [Example 960, 2-(2-cyclopropylacetamido)-N-((2-methoxy-6-(2,2,2-trifluoroethoxy)pyridin-3-yl)methyl)-6-methylisonicotinamide]
CC(=O)Nc1cc(C(=O)NCc2cccc(C(F)(F)F)c2F)cc(C)n1 [Example 729, 2-acetamido-N-(2-fluoro-3-(trifluoromethyl)benzyl)-6-methylisonicotinamide]
CCc1cc(CNC(=O)c2cc(C)nc(NC(=O)C3CC3)n2)cnc1OCC(F)(F)F [Example 718, 2-(cyclopropanecarboxamido)-N-((5-ethyl-6-(2,2,2-trifluoroethoxy)pyridin-3-yl)methyl)-6-methylpyrimidine-4-carboxamide]
CCc1cc(CNC(=O)c2ccnc(NC(=O)C(C)C)c2)cnc1OCC(F)(F)F [Example 712, N-((5-ethyl-6-(2,2,2-trifluoroethoxy)pyridin-3-yl)methyl)-2-isobutyramidoisonicotinamide]
CCC(=O)Nc1cc(C(=O)NCc2ccc(OC(F)(F)F)c(Cl)c2)ccn1 [Example 968, N-(3-chloro-4-(trifluoromethoxy)benzyl)-2-propionamidoisonicotinamide]
CCC(=O)Nc1cc(C(=O)NCc2cnc(OCC(F)(F)F)c(CC)c2)cc(C)n1 [Example 714, N-((5-ethyl-6-(2,2,2-trifluoroethoxy)pyridin-3-yl)methyl)-2-methyl-6-propionamidoisonicotinamide]
CC(=O)Nc1cc(C(=O)NCc2ccc(OC(F)(F)F)c(Cl)c2)ccn1 [Example 967, 2-acetamido-N-(3-chloro-4-(trifluoromethoxy)benzyl)isonicotinamide]
CCC(=O)Nc1cc(C(=O)NCc2ccc(OCC(C)(F)F)nc2)ccn1 [Example 719, N-((6-(2,2-difluoropropoxy)pyridin-3-yl)methyl)-2-propionamidoisonicotinamide]
CC(C)C(=O)Nc1cc(C(=O)NC(C)c2ccc(OCC(F)(F)C(F)(F)F)nc2)ccn1 (single isomer, unassigned) [Example 690, 2-isobutyramido-N-(1-(6-(2,2,3,3,3-pentafluoropropoxy)pyridin-3-yl)ethyl)isonicotinamide]
O=C(NCc1cccc(OC(F)(F)F)c1F)c1ccnc(NC(=O)C2CC2)c1 [Example 748, 2-(cyclopropanecarboxamido)-N-(2-fluoro-3-(trifluoromethoxy)benzyl)isonicotinamide]
O=C(NCc1cnc(OCC(F)F)c(C2CC2)c1)c1ccnc(NC(=O)C2CC2)n1 [Example 918, 2-(cyclopropanecarboxamido)-N-((5-cyclopropyl-6-(2,2-difluoroethoxy)pyridin-3-yl)methyl)pyrimidine-4-carboxamide]
CCc1cc(CNC(=O)c2ccnc(NC(C)=O)c2)cnc1OCC(F)(F)F [Example 709, 2-acetamido-N-((5-ethyl-6-(2,2,2-trifluoroethoxy)pyridin-3-yl)methyl)isonicotinamide]
CCC(=O)Nc1cc(C(=O)NCc2cccc(OC(F)(F)F)c2F)cc(C)n1 [Example 749, N-(2-fluoro-3-(trifluoromethoxy)benzyl)-2-methyl-6-propionamidoisonicotinamide]
Cc1cc(C(=O)NCc2cnc(OCC(F)(F)F)cc2C)cc(NC(=O)CC2CC2)n1 [Example 958, 2-(2-cyclopropylacetamido)-6-methyl-N-((4-methyl-6-(2,2,2-trifluoroethoxy)pyridin-3-yl)methyl)isonicotinamide]
CC(=O)Nc1cc(C(=O)NCc2cccc(OC(F)(F)F)c2F)ccn1 [Example 746, 2-acetamido-N-(2-fluoro-3-(trifluoromethoxy)benzyl)isonicotinamide]
CC(C)C(=O)Nc1cc(C(=O)NCc2cccc(C(F)(F)F)c2F)ccn1 [Example 730, N-(2-fluoro-3-(trifluoromethyl)benzyl)-2-isobutyramidoisonicotinamide]
CCC(=O)Nc1cc(C(=O)NCc2ccc(OCC(C)(F)F)nc2)cc(C)n1 [Example 721, N-((6-(2,2-difluoropropoxy)pyridin-3-yl)methyl)-2-methyl-6-propionamidoisonicotinamide]
CC(C)C(=O)Nc1cc(C(=O)NCc2cccc(OCC(F)(F)F)n2)ccn1 [Example 468, 2-isobutyramido-N-((6-(2,2,2-trifluoroethoxy)pyridin-2-yl)methyl)isonicotinamide]
CCCC(=O)Nc1cc(C(=O)NCc2cccc(OCC(F)(F)F)n2)ccn1 [Example 469, 2-butyramido-N-((6-(2,2,2-trifluoroethoxy)pyridin-2-yl)methyl)isonicotinamide]
CC(=O)Nc1cc(C(=O)NCc2ccc(Cl)c(C(F)(F)F)c2)ccn1 [Example 682, 2-acetamido-N-(4-chloro-3-(trifluoromethyl)benzyl)isonicotinamide]
CCC(=O)Nc1cc(C(=O)NCc2cnc(OCC(F)F)c(C)c2)ccn1 [Example 738, N-((6-(2,2-difluoroethoxy)-5-methylpyridin-3-yl)methyl)-2-propionamidoisonicotinamide]
CCC(=O)Nc1cc(C(=O)NCc2cccc(OCC(F)(F)F)n2)ccn1 [Example 464, 2-propionamido-N-((6-(2,2,2-trifluoroethoxy)pyridin-2-yl)methyl)isonicotinamide]
Cc1cc(CNC(=O)c2cc(C)nc(NC(=O)C(C)C)c2)nc(OCC(F)(F)F)c1 [Example 577, 2-isobutyramido-6-methyl-N-((4-methyl-6-(2,2,2-trifluoroethoxy)pyridin-2-yl)methyl)isonicotinamide]
CCC(=O)Nc1cc(C(=O)NCc2ccc(OCC(F)(F)C(F)(F)F)nc2)ccn1 [Example 639, N-((6-(2,2,3,3,3-pentafluoropropoxy)pyridin-3-yl)methyl)-2-propionamidoisonicotinamide]
Cc1cc(C(=O)NCc2cnc(OCC(F)F)c(C)c2)cc(NC(=O)C(C)C)n1 [Example 743, N-((6-(2,2-difluoroethoxy)-5-methylpyridin-3-yl)methyl)-2-isobutyramido-6-methylisonicotinamide]
